T1: Dld (Cg1027), quinone-dependent D-lactate dehydrogenase (Corynebacterium glutamicum, UniProt Q8NRY8)
T1 construct: PCR fragment printed as 1,020 bp but gene coordinates 955683-957398 imply 571 residues; reverse primer dld2 lacks stop codon; abstract also misprints Cg1067
T1 sequence (Q8NRY8 1-571): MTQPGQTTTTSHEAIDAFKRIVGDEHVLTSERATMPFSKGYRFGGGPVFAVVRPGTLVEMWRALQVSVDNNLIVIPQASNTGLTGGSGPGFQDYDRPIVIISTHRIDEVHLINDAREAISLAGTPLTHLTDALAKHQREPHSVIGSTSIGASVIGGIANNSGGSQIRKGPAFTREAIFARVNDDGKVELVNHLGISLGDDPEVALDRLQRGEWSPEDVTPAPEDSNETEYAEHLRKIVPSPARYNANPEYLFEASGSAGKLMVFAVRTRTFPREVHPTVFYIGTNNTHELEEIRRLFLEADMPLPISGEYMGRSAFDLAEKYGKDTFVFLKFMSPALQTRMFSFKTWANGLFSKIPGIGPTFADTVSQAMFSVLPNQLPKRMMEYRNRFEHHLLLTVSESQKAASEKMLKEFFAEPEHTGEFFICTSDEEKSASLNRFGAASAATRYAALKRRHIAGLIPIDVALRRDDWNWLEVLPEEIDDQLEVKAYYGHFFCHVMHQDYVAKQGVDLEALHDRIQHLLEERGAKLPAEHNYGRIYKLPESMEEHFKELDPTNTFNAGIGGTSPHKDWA


Legend:
[1] = target: T1, Dld (Cg1027), quinone-dependent D-lactate dehydrogenase; assay: absorption spectrum of purified protein ([…] and […] nm); format: binding; conditions: bound cofactor, co-purified; non-covalent; identified from spectrum and FAD domain
purified protein = substrate: C[C@@H](O)C(=O)O; assay: purified protein; conditions: 2,6-dichloroindophenol as electron acceptor, 30 °C, potassium phosphate, pH optimum 7.0, Discussion prints 0.62 mM

Row | Molecule | absorption spectrum of purified protein (375 and 445 nm) [1] | Km (purified protein) [µM]
1 | Cc1cc2nc3c(=O)[nH]c(=O)nc-3n(C[C@H](O)[C@H](O)[C@H](O)COP(=O)(O)OP(=O)(O)OC[C@H]3O[C@@H](n4cnc5c(N)ncnc54)[C@H](O)[C@@H]3O)c2cc1C [FAD] | These results suggest that D-lactate dehydrogenase from C. glutamicum contains FAD as a bound cofactor | –
2 | Dld (Cg1027), quinone-dependent D-lactate dehydrogenase (Corynebacterium glutamicum ATCC 13032) (protein) MTQPGQTTTTSHEAIDAFKRIVGDEHVLTSERATMPFSKGYRFGGGPVFAVVRPGTLVEMWRALQVSVDNNLIVIPQASNTGLTGGSGPGFQDYDRPIVIISTHRIDEVHLINDAREAISLAGTPLTHLTDALAKHQREPHSVIGSTSIGASVIGGIANNSGGSQIRKGPAFTREAIFARVNDDGKVELVNHLGISLGDDPEVALDRLQRGEWSPEDVTPAPEDSNETEYAEHLRKIVPSPARYNANPEYLFEASGSAGKLMVFAVRTRTFPREVHPTVFYIGTNNTHELEEIRRLFLEADMPLPISGEYMGRSAFDLAEKYGKDTFVFLKFMSPALQTRMFSFKTWANGLFSKIPGIGPTFADTVSQAMFSVLPNQLPKRMMEYRNRFEHHLLLTVSESQKAASEKMLKEFFAEPEHTGEFFICTSDEEKSASLNRFGAASAATRYAALKRRHIAGLIPIDVALRRDDWNWLEVLPEEIDDQLEVKAYYGHFFCHVMHQDYVAKQGVDLEALHDRIQHLLEERGAKLPAEHNYGRIYKLPESMEEHFKELDPTNTFNAGIGGTSPHKDWA | – | 610

— publication PMC3022706 (BMC Microbiology, 2010)
